Data taken from US20210401931A1, “METHODS AND MATERIALS FOR TREATING CANCER” (Mayo Foundation for Medical Education and Research, priority 2018, published 2021).
Ends that are not written are not given here.

What was measured:
NFκB target genes = assay: Expression of NFκB target genes in PC-3 cells (RNA-seq, RT-qPCR); format: cell-based, human; details: PC-3 cells expressing peptide, TNFα 20 ng/mL, 24 hours
Protocol: FIGS. 4A-G. RB globally regulates NFkB transcriptional program in cells. […] (F, G) PC-3 cell were treated with or without palbociclib (5 μM) for 24 hours or PC-3 cells were infected with lentivirus expressing control shRNA or RB-specific shRNA following puromycin selection after 48 hours infection. Cells were harvested for RT-qPCR (F) and ChIP-qPCR (G) analysis of p65 binding at the promotor of PD-L1, GADD45B, NR4A2, and CD83. All data were shown as mean values±SD (n=3). * P<0.05, ** P<0.01, ***P<0.001.
FIGS. 16A-K. Mutual exclusivity of PTEN and MAP3K7 gene deletion in human cancers and CDK4/6 inhibition-mediated blockage of MAP3K7 deficiency-induced death of PTEN-null cells. (A) Genetic alterations of MAP3K7 and PTEN genes in the TCGA prostate cancer dataset. (B) Genetic alterations of MAP3K7 and PTEN genes in lymphoid neoplasm diffuse large B-cell lymphoma, stomach adenocarcinoma, pancreatic cancer, liver cancer, bladder urothelial carcinoma, and lung adenocarcinoma. (C-E) PC-3 cells were infected with lentivirus expressing control or MAP3K7-specific shRNAs. 72 hours after infection, cells were harvested for western blotting (C), cell growth assay (D), and colony formation assay (E). All data were shown as mean values±SD (n=3). ns, not significant, * P<0.05 comparing to the shControl group. (F-H) LNCaP-RF prostate cancer cells were infected with lentivirus expressing control or MAP3K7-specific shRNAs. 72 hours after infection, cells were harvested for western blotting (F), cell growth assay (G), and colony formation assay (H). All data are shown as mean values±SD (n=3). ns, not significant, * P<0.05 comparing to the shControl group. (I-K) PC-3 cells were infected with lentivirus expressing control, MAP3K7 or CHD1-specific shRNAs. 72 hours after infection, cells were treated with DMSO or palbociclib (5 μM). […]
FIGS. 17A-I. Negative regulation of MAP3K7-IKK-NFκB and CHD1-NFκB signaling by RB. […] 72 hours after infection and puromycin selection, cells were injected s.c. into the right flank of NSG mice, and tumor growth was measured for 21 days. […]

PD-L1 = PD-L1 expression in cell lines of other cancer types (PANC-1, H1299, SK-Hep1) expressing RL peptide; format: cell-based, human; details: listed as RL-S249/T252D peptide
Protocol: FIGS. 12A-C. (A, B) PANC-1, H1299, and SK-Hep1 were infected with lentivirus expressing control or RB-specific shRNAs following puromycin selection. 48 hours post infection, cells were transfected with indicated construct. 24 hours after transfection, cells were harvested for western blotting (A) and RT-qPCR (B). All data were shown as mean values±SD (n=3). “ns”=not significant, *** P<0.001. (C) Western blot analysis of expression of PD-L1, RB, pRB-S249/T252, pRB-5795, and ERK2 in prostate cancer cell lines indicated.
Total RNA was isolated using TRIzol reagent (Thermo Fisher Scientific). The NanoDrop 2000 spectrophotometer (Thermo Fisher Scientific) was used to assess RNA yield and quality. RNA was reversely transcribed using Superscript reverse transcriptase (Thermo Fisher Scientific) following manufacturer's instructions. Quantitative real-time PCR was performed by mixing cDNA, gene-specific primers, and IQ SYRB Green Supermix and detected by iCycler QTX detection system (Bio-Rad). The 2-ΔCt method was used to quantitate fold changes by normalizing to GAPDH. Primers for RT-qPCR are provided Table 4.
Cells were harvested and lysed by IP buffer, and the supernatant was quantified by BCA protein quantification assay. Equal amounts of protein sample were added into 4× sample buffer and boiled for 5 minutes. […]

RL-S249D/T252D: S249/T252 phospho-mimicking R-Linker (RL) peptide: fragment of RB-N containing 21 amino acids surrounding S249/T252, expressed SFB-tagged or by lentivirus (NGDPRDPRRGQNRSARIAKQL; also: expressed SFB-tagged (tag left off))
TNFα-induced expression of NFκB target genes (NFκB target genes): blocked
PD-L1 expression in cell lines of other cancer types (PD-L1): inhibited
